From patent US12428428B2, “Tricyclic tetrahydroisoquinoline derivative, preparation method therefor and application thereof in medicine” (JIANGSU HENGRUI MEDICINE CO., LTD., priority 2020, dated 2025)

How the values were obtained:
CYP3A4 [1] = molecular target: T1, CYP3A4 (Homo sapiens (Human), UniProt P08684); experiment: Inhibition of site of metabolism of testosterone in human liver microsome CYP3A4; format: in vitro ADME; settings: testosterone substrate
Method: (§1) • 1. Phosphate buffer (20×PBS, purchased from Sangon); • 2. NADPH (ACROS, A2646-71-1); • 3. Human liver microsome (Corning Gentest, Cat No, 452161, Lot No. 905002, Donor36); • 4. ABI QTrap 4000 LC-MS System (AB Sciex); • 5. ZORBAX Extend-C18, 3×50 mm, 3.5 μm (Agilent, USA); • 6. CYP probe substrate (testosterone, Vocko, CAS No. [58-22-0]/75 μM) and positive control inhibitor (ketoconazole, SIGMA, Cat No. K1003-100MG).
A 100 mM PBS buffer was prepared. […]. A 0.25 mg/mL microsome solution, a 7.5 mM MgCl2 and a 5 mM NADPH solution were prepared using the buffer. A 30 mM stock solution was diluted with DMSO to obtain 30 mM, 10 mM, 3 mM, 1 mM, 0.3 mM, 0.03 mM, 0.003 mM and 0 mM serial solutions I, which were further diluted 200-fold with phosphate buffer (PBS) to obtain serial test solutions II (150, 50, 15, 5, 1.5, 0.15, 0.015 and 0 μM). A testosterone working solution was diluted with PBS to […].
40 μL of a 0.25 mg/mL microsome solution prepared in 7.5 mM MgCl2 and 20 μL of each of the 375 μM testosterone working solution and the compound working solutions (150, 50, 15, 5, 1.5, 0.15, 0.015 and 0 μM) were measured out and well mixed. Ketoconazole at the same concentration was used in place of the compounds as a positive control group. The mixtures were pre-incubated […] at 37° C. for 5 min at the same time. After 5 minutes, 20 μL of NADPH was added to each well to start reactions. The mixtures were incubated for 30 min. After 30 minutes, 250 μL of internal standard-containing acetonitrile was added to all the samples. The mixtures were well mixed, shaken at 800 rpm for 10 min, and then centrifuged at 3700 rpm for 10 min. 100 μL of the supernatant and 80 μL of ultrapure water were well mixed and subjected to LC-MS/MS analysis.
The IC50 values of the drugs for the site of metabolism of testosterone in CYP3A4 were calculated using Graphpad Prism and are shown in Table 6.

CYP3A4 [2] = molecular target: T1, CYP3A4; experiment: Time-dependent inhibition of site of metabolism of midazolam in human liver microsome CYP3A4; format: in vitro ADME; settings: midazolam substrate; for IC50 shift at 30 min: human, human liver microsomes, probe midazolam (3 µM)
Method: as §1, with “9050002, Donor, 36);” for “905002, Donor36);”, “(midazolam, TRC, M343000/3” for “(testosterone, Vocko, CAS No. [58-22-0]/75”, “(verapamil, Adamas Reagent Co, Ltd,” for “(ketoconazole, SIGMA,”, “25904A).” for “K1003-100MG).”
A 100 mM PBS buffer was prepared. A 0.25 mg/mL microsome solution, a 7.5 mM MgCl2 and a 5 mM NADPH solution were prepared using the buffer. A 30 mM stock solution was diluted with DMSO to obtain 30 mM, 10 mM, 3 mM, 1 mM, 0.3 mM, 0.1 mM, 0.03 mM and 0 mM serial solutions I, which were further diluted 200-fold with phosphate buffer (PBS) to obtain serial test solutions II (150, 50, 15, 5, 1.5, 0.5, 0.15 and 0 μM). A midazolam working solution was diluted with PBS to 15 μM.
The serial test solutions prepared above were well mixed by shaking and aliquoted in 20 μL portions into corresponding reaction plates (+NADPH, T0 and −NADPH groups were set). Three parallel tests were set. 40 μL of the liver microsome working solution was added to each 96-well plate. 20 μL of a corresponding substrate solution was added to the T0 plate. 20 μL of NADPH was added to the TO plate and +NADPH group. A timer was started, and the plates were incubated in a water bath at 37° C. After 30 min of incubation, the TO plate was taken out, and the reaction was terminated with 250 μL of an internal standard-containing ACN solution. The +NADPH group was supplemented with 20 μL of the corresponding substrate solution, and the −NADPH group was supplemented with 20 μL of the corresponding substrate solution and […]. A timer was started, and the plates were incubated in a water bath at 37° C. After 30 min of incubation, the plates were taken out, and the reactions were terminated with 250 μL of an internal standard-containing ACN solution. Then the plates were shaken on a shaker at 800 rpm for 10 min and centrifuged at 4000 rpm for 15 min. 100 μL of the supernatant and 80 μL of ultrapure water were well mixed and subjected to LC-MS/MS analysis.
The IC50 values of the drugs for the site of metabolism of midazolam in CYP3A4 were calculated using Graphpad Prism and are shown in Table 7.

hERG potassium channels = hERG potassium channels (Homo sapiens (Human), UniProt Q12809); experiment: Blocking of hERG potassium currents (automated patch clamp, HEK293-hERG); format: cell-based; settings: HEK293-hERG stable cell strain
Sequence of hERG potassium channels (Q12809 whole entry): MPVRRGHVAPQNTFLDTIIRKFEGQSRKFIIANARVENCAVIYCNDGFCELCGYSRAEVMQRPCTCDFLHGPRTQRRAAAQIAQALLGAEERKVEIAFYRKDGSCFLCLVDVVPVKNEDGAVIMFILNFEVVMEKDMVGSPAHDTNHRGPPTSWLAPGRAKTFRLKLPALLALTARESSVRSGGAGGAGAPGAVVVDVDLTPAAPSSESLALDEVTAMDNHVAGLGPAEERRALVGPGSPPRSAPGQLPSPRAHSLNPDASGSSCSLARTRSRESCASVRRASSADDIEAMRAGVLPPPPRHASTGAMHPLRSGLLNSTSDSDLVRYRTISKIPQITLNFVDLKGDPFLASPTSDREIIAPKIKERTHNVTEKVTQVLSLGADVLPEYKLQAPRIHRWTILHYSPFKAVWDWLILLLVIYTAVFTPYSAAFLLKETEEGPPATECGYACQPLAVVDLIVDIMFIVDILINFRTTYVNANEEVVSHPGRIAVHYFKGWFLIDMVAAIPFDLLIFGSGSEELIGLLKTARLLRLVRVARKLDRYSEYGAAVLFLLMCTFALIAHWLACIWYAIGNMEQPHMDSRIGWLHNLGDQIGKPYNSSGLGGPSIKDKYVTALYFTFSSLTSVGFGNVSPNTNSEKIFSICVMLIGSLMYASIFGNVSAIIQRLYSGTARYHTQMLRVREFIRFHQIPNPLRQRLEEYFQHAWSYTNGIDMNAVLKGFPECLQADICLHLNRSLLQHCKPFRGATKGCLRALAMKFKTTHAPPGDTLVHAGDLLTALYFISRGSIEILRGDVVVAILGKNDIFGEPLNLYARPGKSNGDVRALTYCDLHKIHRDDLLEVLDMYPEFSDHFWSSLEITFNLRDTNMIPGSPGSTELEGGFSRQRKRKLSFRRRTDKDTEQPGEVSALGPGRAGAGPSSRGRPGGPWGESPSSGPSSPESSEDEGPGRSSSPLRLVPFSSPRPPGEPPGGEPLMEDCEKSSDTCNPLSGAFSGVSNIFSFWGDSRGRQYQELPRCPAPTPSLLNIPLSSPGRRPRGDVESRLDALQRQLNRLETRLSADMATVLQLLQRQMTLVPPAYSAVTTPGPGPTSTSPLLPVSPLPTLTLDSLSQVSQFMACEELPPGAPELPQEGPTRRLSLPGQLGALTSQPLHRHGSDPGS
Method: The blocking of hERG potassium currents by the compounds disclosed herein was tested in a stable cell strain transfected with hERG potassium channels using automated patch clamp.
An HEK293-hERG stable cell strain was subcultured in an MEM/EBSS medium (10% FBS, 400 μg/mL G418, 1% MEM non-essential amino acid solution (100×), 1% sodium pyruvate solution) at a density of 1:4, and an automated patch clamp experiment was conducted between hour 48 and hour 72 after the start of the culture. On the day of the experiment, the cells were digested with 0.25% trypsin, then centrifuged, collected, and resuspended in an extracellular fluid (140 mM NaCl, 4 mM KCl, 1 mM MgCl2, 2 mM CaCl2), 5 mM D-glucose monohydrate, 10 mM Hepes, pH 7.4, 298 mOsm) to form a cell suspension. The cell suspension was placed on the cell bank of the Patchliner instrument, which then applied the cells to a chip (NPC-16) by means of a negative pressure controller. The negative pressure drew individual cells to the wells of the chip. […] Data were recorded and analyzed using the HEAK Patchmaster, HEAK EPC10 patch clamp amplifier (Nanion), Pathliner software and Pathcontrol HT software, and the currents of the compounds at each concentration and the current of the blank control were analyzed.

[3] = 30 min pre-incubation with NADPH

T1 sequence (P08684 whole entry): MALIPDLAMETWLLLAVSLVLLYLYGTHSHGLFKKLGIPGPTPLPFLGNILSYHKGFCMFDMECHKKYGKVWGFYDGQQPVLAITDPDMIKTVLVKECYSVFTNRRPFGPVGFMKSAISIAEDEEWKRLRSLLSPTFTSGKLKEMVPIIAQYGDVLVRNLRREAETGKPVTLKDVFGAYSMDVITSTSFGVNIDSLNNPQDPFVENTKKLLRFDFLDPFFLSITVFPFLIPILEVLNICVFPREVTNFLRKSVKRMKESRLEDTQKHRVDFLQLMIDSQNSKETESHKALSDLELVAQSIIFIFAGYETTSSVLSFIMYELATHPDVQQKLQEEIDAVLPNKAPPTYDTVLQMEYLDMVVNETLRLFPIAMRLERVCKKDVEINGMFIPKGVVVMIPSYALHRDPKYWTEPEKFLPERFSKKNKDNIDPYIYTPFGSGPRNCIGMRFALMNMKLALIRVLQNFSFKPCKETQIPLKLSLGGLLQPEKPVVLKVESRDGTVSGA

Row | Structure (SMILES) | IC50 (CYP3A4 [1]) | IC50 shift at 30 min (CYP3A4 [2]) | IC50 (CYP3A4 [2]; [3]) | IC50 (CYP3A4 [2]; pre-incubation without NADPH) | IC50 (hERG potassium channels)
1 | C[C@@H]1Cc2cc3c(cc2[C@@H](c2ccc(N[C@H]4CCN(CCCF)C4)cc2)N1CC(F)(F)F)OCO3 [Example 1, (S)-1-(3-fluoropropyl)-N-(4-((5R,7R)-7-methyl-6-(2,2,2-trifluoroethyl)-5,6,7,8-tetrahydro-[1,3]dioxolo[4,5-g]isoquinolin-5-yl)phenyl)pyrrolidin-3-amine] | 7.31 µM |  |  |  | 
2 | C[C@@H]1Cc2cc3c(cc2[C@@H](c2c(F)cc(N[C@H]4CCN(CCCF)C4)cc2F)N1CC(F)(F)F)OCO3 [Example 2, (S)—N-(3,5-difluoro-4-((5S,7R)-7-methyl-6-(2,2,2-trifluoroethyl)-5,6,7,8-tetrahydro-[1,3]dioxolo[4,5-g]isoquinolin-5-yl)phenyl)-1-(3-fluoropropyl)pyrrolidin-3-amine] | > 30 µM |  |  |  | 
3 | C[C@@H]1Cc2cc3c(cc2[C@@H](c2ccc(N[C@H]4CCN(CCCF)C4)cc2)N1CC(F)(F)CO)OCO3 [Example 3, 2,2-Difluoro-3-((5R,7R)-5-(4-(((S)-1-(3-fluoropropyl)pyrrolidin-3-yl)amino)phenyl)-7-methyl-7,8-dihydro-[1,3]dioxolo[4,5-g]isoquinolin-6(5H)-yl)propan-1-ol] | 14.6 µM |  |  |  | 
4 | C[C@@H]1Cc2cc3c(cc2[C@@H](c2ccc(N[C@H]4CCN(CCCF)C4)cn2)N1CC(F)(F)CO)OCO3 [Example 4, 2,2-Difluoro-3-((5S,7R)-5-(5-(((S)-1-(3-fluoropropyl)pyrrolidin-3-yl)amino)pyridin-2-yl)-7-methyl-7,8-dihydro-[1,3]dioxolo[4,5-g]isoquinolin-6(5H)-yl)propan-1-ol] | 15.5 µM | 1 | 2.43 µM | 2.47 µM | 
5 | C[C@@H]1Cc2cc3c(cc2[C@@H](c2ncc(N[C@H]4CCN(CCCF)C4)cc2F)N1CC(F)(F)CO)OCO3 [Example 11, 2,2-Difluoro-3-((5S,7R)-5-(3-fluoro-5-(((S)-1-(3-fluoropropyl)pyrrolidin-3-yl)amino)pyridin-2-yl)-7-methyl-7,8-dihydro-[1,3]dioxolo[4,5-g]isoquinolin-6(5H)-yl)propan-1-ol] |  |  |  |  | > 30 µM
6 | [2H]C1([2H])Oc2cc3c(cc2O1)[C@@H](c1ccc(N[C@H]2CCN(CCCF)C2)cn1)N(CC(F)(F)CO)[C@H](C)C3 [Example 12, 2,2-Difluoro-3-((5S,7R)-5-(5-(((S)-1-(3-fluoropropyl)pyrrolidin-3-yl)amino)pyridin-2-yl)-7-methyl-7,8-dihydro-[1,3]dioxolo[4,5-g]isoquinolin-6(5H)-yl-2,2-d2)propan-1-ol] | 23.8 µM | 0.9 | 9.16 µM | 10.2 µM | > 30 µM
